Results on 14 compounds are retold here after patent publication US11331369B2, “Endoparasitic depsipeptides” (Zoetis Services LLC, priority 2017, dated 2022).

For this test, the system named is microfilariae of Dirofilaria immitis. Description: Dirofilaria immitis, Microfilaria (DiMF) In vitro Assay. The settings on record: 72 h, read-out: DiMF Minimum Effective Dose (MED), approximately 72 hours incubation, microfilariae assessed for survival or paralysis. In kind it is cell-based.
In the case of `CC(C)C[C@H]1C(=O)O[C@H](Cc2ccc(Cn3ccnc3CF)cc2)C(=O)N(C)[C@@H](CC(C)C)C(=O)O[C@H](C)C(=O)N(C)[C@@H](CC(C)C)C(=O)O[C@H](Cc2ccccc2)C(=O)N(C)[C@@H](CC(C)C)C(=O)O[C@H](C)C(=O)N1C` [Example 8-14, (3S,6R,9S,12R,15S,18R,21S,24R)-6-benzyl-18-(4-((2-(fluoromethyl)-1H-imidazol-1-yl)methyl)benzyl)-3,9,15,21-tetraisobutyl-4,10,12,16,22,24-hexamethyl-1,7,13,19-tetraoxa-4,10,16,22-tetraazacyclotetracosan-2,5,8,11,14,17,20,23-octaone], the minimal effective concentration was 0.01 to 0.1 µM.

Regarding `CC(C)C[C@H]1C(=O)O[C@H](Cc2ccc(Cn3cc(/C(N)=N/O)cn3)cc2)C(=O)N(C)[C@@H](CC(C)C)C(=O)O[C@H](C)C(=O)N(C)[C@@H](CC(C)C)C(=O)O[C@H](Cc2ccc(Cn3cc(C(N)=NO)cn3)cc2)C(=O)N(C)[C@@H](CC(C)C)C(=O)O[C@H](C)C(=O)N1C` [Example 1b-22, N′-hydroxy-1-[[4-[[(2R,5S,8R,11S,14R,17S,20R,23S)-14-[[4-[[4-[(Z)—N′-hydroxycarbamimidoyl]pyrazol-1-yl]methyl]phenyl]methyl]-5,11,17,23-tetraisobutyl-4,8,10,16,20,22-hexamethyl-3,6,9,12,15,18,21,24-octaoxo-1,7,13,19-tetraoxa-4,10,16,22-tetrazacyclotetracos-2-yl]methyl]phenyl]methyl]pyrazole-4-carboxamidine], the minimal effective concentration lay within 0.01 to 0.1 µM.

Consider `CC(C)C[C@H]1C(=O)O[C@H](Cc2ccc(Cn3cc(CCO)cn3)cc2)C(=O)N(C)[C@@H](CC(C)C)C(=O)O[C@H](C)C(=O)N(C)[C@@H](CC(C)C)C(=O)O[C@H](Cc2ccc(Cn3cc(CCO)cn3)cc2)C(=O)N(C)[C@@H](CC(C)C)C(=O)O[C@H](C)C(=O)N1C` [Example 1b-75, (3S,6R,9S,12R,15S,18R,21S,24R)-6,18-bis(4-((4-(2-hydroxyethyl)-1H-pyrazol-1-yl)methyl)benzyl)-3,9,15,21-tetraisobutyl-4,10,12,16,22,24-hexamethyl-1,7,13,19-tetraoxa-4,10,16,22-tetraazacyclotetracosan-2,5,8,11,14,17,20,23-octaone], for which the minimal effective concentration is 0.01 to 0.1 µM.

For the compound `CCc1nn(Cc2ccc(C[C@H]3OC(=O)[C@H](CC(C)C)N(C)C(=O)[C@@H](C)OC(=O)[C@H](CC(C)C)N(C)C(=O)[C@@H](Cc4ccc(Cn5nc(CC)c(N)c5CC)cc4)OC(=O)[C@H](CC(C)C)N(C)C(=O)[C@@H](C)OC(=O)[C@H](CC(C)C)N(C)C3=O)cc2)c(CC)c1N` [Example 1b-133, (3S,6R,9S,12R,15S,18R,21S,24R)-6,18-bis(4-((4-amino-3,5-diethyl-1H-pyrazol-1-yl)methyl)benzyl)-3,9,15,21-tetraisobutyl-4,10,12,16,22,24-hexamethyl-1,7,13,19-tetraoxa-4,10,16,22-tetraazacyclotetracosan-2,5,8,11,14,17,20,23-octaone], the minimal effective concentration lay within 0.01 to 0.1 µM.

As to `Cc1nccn1Cc1ccc(C[C@H]2OC(=O)[C@H](CC(C)C)N(C)C(=O)[C@@H](C)OC(=O)[C@H](CC(C)C)N(C)C(=O)[C@@H](Cc3cccc(Cn4ccnc4C)c3)OC(=O)[C@H](CC(C)C)N(C)C(=O)[C@@H](C)OC(=O)[C@H](CC(C)C)N(C)C2=O)cc1` [Example 7-1, (3S,6R,9S,12R,15S,18R,21S,24R)-3,9,15,21-tetraisobutyl-4,6,10,16,18,22-hexamethyl-12-[[3-[(2-methylimidazol-1-yl)methyl]phenyl]methyl]-24-[[4-[(2-methylimidazol-1-yl)methyl]phenyl]methyl]-1,7,13,19-tetraoxa-4,10,16,22-tetrazacyclotetracosane-2,5,8,11,14,17,20,23-octaone], the minimal effective concentration is 0.01 to 0.1 µM.

For `CC(C)C[C@H]1C(=O)O[C@H](Cc2ccc(Cn3ccc(C4CCC4)n3)cc2)C(=O)N(C)[C@@H](CC(C)C)C(=O)O[C@H](C)C(=O)N(C)[C@@H](CC(C)C)C(=O)O[C@H](Cc2ccc(Cn3ccc(C4CCC4)n3)cc2)C(=O)N(C)[C@@H](CC(C)C)C(=O)O[C@H](C)C(=O)N1C` [Example 1b-106, (3S,6R,9S,12R,15S,18R,21S,24R)-6,18-bis(4-((3-cyclobutyl-1H-pyrazol-1-yl)methyl)benzyl)-3,9,15,21-tetraisobutyl-4,10,12,16,22,24-hexamethyl-1,7,13,19-tetraoxa-4,10,16,22-tetraazacyclotetracosan-2,5,8,11,14,17,20,23-octaone], the minimal effective concentration was in the range of 0.01 to 0.1 µM.

On to `CC(C)C[C@H]1C(=O)O[C@H](Cc2ccc(Cn3cc(C(F)F)cn3)cc2)C(=O)N(C)[C@@H](CC(C)C)C(=O)O[C@H](C)C(=O)N(C)[C@@H](CC(C)C)C(=O)O[C@H](Cc2ccccc2)C(=O)N(C)[C@@H](CC(C)C)C(=O)O[C@H](C)C(=O)N1C` [Example 2-18, (3S,6R,9S,12R,15S,18R,21S,24R)-6-benzyl-18-(4-((4-(difluoromethyl)-1H-pyrazol-1-yl)methyl)benzyl)-3,9,15,21-tetraisobutyl-4,10,12,16,22,24-hexamethyl-1,7,13,19-tetraoxa-4,10,16,22-tetraazacyclotetracosan-2,5,8,11,14,17,20,23-octaone], for which the minimal effective concentration lay within 0.001 to 0.01 µM.

In the case of `Cc1nn(Cc2ccc(C[C@H]3OC(=O)[C@H](CC(C)C)N(C)C(=O)[C@@H](C)OC(=O)[C@H](CC(C)C)N(C)C(=O)[C@@H](Cc4ccccc4)OC(=O)[C@H](CC(C)C)N(C)C(=O)[C@@H](C)OC(=O)[C@H](CC(C)C)N(C)C3=O)cc2)c(C)c1O` [Example 2-44, (3S,6R,9S,12R,15S,18R,21S,24R)-6-benzyl-18-(4-((4-hydroxy-3,5-dimethyl-1H-pyrazol-1-yl)methyl)benzyl)-3,9,15,21-tetraisobutyl-4,10,12,16,22,24-hexamethyl-1,7,13,19-tetraoxa-4,10,16,22-tetraazacyclotetracosan-2,5,8,11,14,17,20,23-octaone], the minimal effective concentration lay in the range of 0.001 to 0.01 µM.

`Cc1cnn(Cc2ccc(C[C@H]3OC(=O)[C@H](CC(C)C)N(C)C(=O)[C@@H](C)OC(=O)[C@H](CC(C)C)N(C)C(=O)[C@@H](Cc4ccc(Cn5nc(C)c(S(=O)(=O)N6CCCC6)c5C)cc4)OC(=O)[C@H](CC(C)C)N(C)C(=O)[C@@H](C)OC(=O)[C@H](CC(C)C)N(C)C3=O)cc2)c1` [Example 1a-23, (3S,6R,9S,12R,15S,18R,21S,24R)-6-(4-((3,5-dimethyl-4-(pyrrolidin-1-ylsulfonyl)-1H-pyrazol-1-yl)methyl)benzyl)-3,9,15,21-tetraisobutyl-4,10,12,16,22,24-hexamethyl-18-(4-((4-methyl-1H-pyrazol-1-yl)methyl)benzyl)-1,7,13,19-tetraoxa-4,10,16,22-tetraazacyclotetracosan-2,5,8,11,14,17,20,23-octaone]: the minimal effective concentration was in the range of 0.01 to 0.1 µM.

Regarding `CCc1cnn(Cc2ccc(C[C@H]3OC(=O)[C@H](CC(C)C)N(C)C(=O)[C@@H](C)OC(=O)[C@H](CC(C)C)N(C)C(=O)[C@@H](Cc4ccc(Cn5cc(CC)cn5)cc4)OC(=O)[C@H](CC(C)C)N(C)C(=O)[C@@H](C)OC(=O)[C@H](CC(C)C)N(C)C3=O)cc2)c1` [Example 1b-31, (3S,6R,9S,12R,15S,18R,21S,24R)-6,18-bis[[4-[(4-ethylpyrazol-1-yl)methyl]phenyl]methyl]-3,9,15,21-tetraisobutyl-4, 10,12,16,22,24-hexamethyl-1,7,13,19-tetraoxa-4,10,16,22-tetrazacyclotetracosane-2,5,8,11,14,17,20,23-octaone], the minimal effective concentration lay within 0.01 to 0.1 µM.

For `CC(C)C[C@H]1C(=O)O[C@H](Cc2ccc(Cn3ncc4ccccc43)cc2)C(=O)N(C)[C@@H](CC(C)C)C(=O)O[C@H](C)C(=O)N(C)[C@@H](CC(C)C)C(=O)O[C@H](Cc2ccccc2)C(=O)N(C)[C@@H](CC(C)C)C(=O)O[C@H](C)C(=O)N1C` [Example 10-26, (3S,6R,9S,12R,15S,18R,21S,24R)-6-(4-((1H-indazol-1-yl)methyl)benzyl)-18-benzyl-3,9,15,21-tetraisobutyl-4,10,12,16,22,24-hexamethyl-1,7,13,19-tetraoxa-4,10,16,22-tetraazacyclotetracosan-2,5,8,11,14,17,20,23-octaone], the minimal effective concentration was 0.01 to 0.1 µM.

For the compound `CC(C)C[C@H]1C(=O)O[C@H](Cc2ccc(Cn3ccc(Br)n3)cc2)C(=O)N(C)[C@@H](CC(C)C)C(=O)O[C@H](C)C(=O)N(C)[C@@H](CC(C)C)C(=O)O[C@H](Cc2ccc(Cn3ccc(Br)n3)cc2)C(=O)N(C)[C@@H](CC(C)C)C(=O)O[C@H](C)C(=O)N1C` [Example 1b-63, (3S,6R,9S,12R,15S,18R,21S,24R)-6,18-bis(4-((3-bromo-1H-pyrazol-1-yl)methyl)benzyl)-3,9,15,21-tetraisobutyl-4,10,12,16,22,24-hexamethyl-1,7,13,19-tetraoxa-4,10,16,22-tetraazacyclotetracosan-2,5,8,11,14,17,20,23-octaone], the minimal effective concentration lay within 0.01 to 0.1 µM.

For the compound `CC(C)C[C@H]1C(=O)O[C@H](Cc2ccc(Cn3cc(OC4COC4)cn3)cc2)C(=O)N(C)[C@@H](CC(C)C)C(=O)O[C@H](C)C(=O)N(C)[C@@H](CC(C)C)C(=O)O[C@H](Cc2ccc(Cn3cc(OC4COC4)cn3)cc2)C(=O)N(C)[C@@H](CC(C)C)C(=O)O[C@H](C)C(=O)N1C` [Example 1b-142, (3S,6R,9S,12R,15S,18R,21S,24R)-3,9,15,21-tetraisobutyl-4,6,10,16,18,22-hexamethyl-12,24-bis(4-((4-(oxetan-3-yloxy)-1H-pyrazol-1-yl)methyl)benzyl)-1,7,13,19-tetraoxa-4,10,16,22-tetraazacyclotetracosan-2,5,8,11,14,17,20,23-octaone], the minimal effective concentration lay within 0.001 to 0.01 µM.

As to `CC(C)C[C@H]1C(=O)O[C@H](Cc2ccc(Cn3ccc(I)n3)cc2)C(=O)N(C)[C@@H](CC(C)C)C(=O)O[C@H](C)C(=O)N(C)[C@@H](CC(C)C)C(=O)O[C@H](Cc2ccc(Cn3ccc(I)n3)cc2)C(=O)N(C)[C@@H](CC(C)C)C(=O)O[C@H](C)C(=O)N1C` [Example 1b-64, (3S,6R,9S,12R,15S,18R,21S,24R)-6,18-bis(4-((3-iodo-1H-pyrazol-1-yl)methyl)benzyl)-3,9,15,21-tetraisobutyl-4,10,12,16,22,24-hexamethyl-1,7,13,19-tetraoxa-4,10,16,22-tetraazacyclotetracosan-2,5,8,11,14,17,20,23-octaone], the minimal effective concentration was in the range of 0.01 to 0.1 µM.
